The source of these data is ChEMBL document CHEMBL4421718, “Quinoxaline derivatives as gpr6 modulators” (2015).

In experiment [1] the target is G-protein coupled receptor 6 (Homo sapiens, UniProt P46095). Nature of the experiment: Modulation activity at GPR6 receptor (unknown origin) expressed in CHO-K1 cells assessed as inhibition of constitutive cAMP activity incubated for 45 mins by Perkin Elmer Lance HTRF Ultrac-AMP assay. In kind it is functional, cell-based. On the technique in general: In TR-FRET formats the signal depends on donor and acceptor labels being close together.

Experiment [2] concerns Mus musculus. The experiment is described as follows: Reversal of haloperidol-induced catalepsy in C57BL6 mouse model of Parkinson's disease assessed as reduction in catalepsy intensity index at 30 mg/kg, ip dosed along with haloperidol and measured after 30 mins relative to untreated control. Also on record: scale not given: the % may be the effect or the level left. In kind it is functional.

Experiment [3] concerns Mus musculus. The experiment is described as follows: Reversal of haloperidol-induced catalepsy in C57BL6 mouse model of Parkinson's disease assessed as reduction in catalepsy intensity index at 30 mg/kg, ip dosed along with haloperidol and measured after 120 mins relative to untreated control. In kind it is functional. Also on record: scale not given: the % may be the effect or the level left.

The test system of experiment [4] is Mus musculus. Nature of the experiment: Reversal of haloperidol-induced catalepsy in C57BL6 mouse model of Parkinson's disease assessed as reduction in catalepsy intensity index at 10 mg/kg, ip dosed along with haloperidol and measured after 120 mins relative to untreated control. In kind it is functional. More on the design: scale not given: the % may be the effect or the level left.

Experiment [5] deals with Mus musculus. The experiment is described as follows: Reversal of haloperidol-induced catalepsy in C57BL6 mouse model of Parkinson's disease assessed as reduction in catalepsy intensity index at 10 mg/kg, ip dosed along with haloperidol and measured after 30 mins relative to untreated control. In kind it is functional. Also on record: scale not given: the % may be the effect or the level left.

In experiment [6] the test system is Mus musculus. The experiment is described as follows: Reversal of haloperidol-induced catalepsy in C57BL6 mouse model of Parkinson's disease assessed as reduction in catalepsy intensity index at 10 mg/kg, sc dosed along with haloperidol and measured after 120 mins relative to untreated control. In kind it is functional. Also on record: scale not given: the % may be the effect or the level left.

A further experiment has as its system Rattus norvegicus. The experiment is described as follows: Reversal of haloperidol-induced catalepsy in Sprague-Dawley rat model of Parkinson's disease assessed as reduction in catalepsy intensity index at 10 mg/kg, sc dosed along with haloperidol and measured after 30 mins relative to untreated control. In kind it is functional. More on the design: scale not given: the % may be the effect or the level left.

Chain of G-protein coupled receptor 6 (P46095 whole entry): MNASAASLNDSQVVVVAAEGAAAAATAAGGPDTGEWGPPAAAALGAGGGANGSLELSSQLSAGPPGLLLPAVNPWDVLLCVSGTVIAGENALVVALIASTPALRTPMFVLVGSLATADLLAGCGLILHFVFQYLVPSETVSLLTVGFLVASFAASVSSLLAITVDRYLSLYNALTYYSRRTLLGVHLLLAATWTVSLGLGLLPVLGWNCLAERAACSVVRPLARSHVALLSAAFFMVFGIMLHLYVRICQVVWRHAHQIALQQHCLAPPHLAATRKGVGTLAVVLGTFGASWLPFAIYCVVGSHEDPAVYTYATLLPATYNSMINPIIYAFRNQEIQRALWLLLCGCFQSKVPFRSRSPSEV

Consider `CC1CC1Nc1nc2cnncc2nc1N1CCC([C@@H](F)c2ccc(F)cc2F)CC1` (stereo partly specified), for which, in experiment [1], the IC50 is 145 nM.
The same measure, in the same setting: the figure for `COc1ccc(OC2CCN(c3nc4c(N5CCOCC5)nccc4nc3NC3CC3)CC2)c(F)c1` is 114 nM.
Still for that read-out and setting: the result for `Cc1nncc2nc(N3CCC(Oc4ccc(F)cc4F)CC3)c(NC(C)C)nc12` reads 31 nM; that for `Fc1ccc(CN2CCN(c3nc4cnccc4nc3NC3CC3)CC2)c(F)c1`, 21 nM.
For the compound `Clc1cccc(CN2CCN(c3nc4ccccc4nc3Nc3cccnc3)CC2)c1.O=C(O)C(F)(F)F`, the Activity was determined as 13.6% in the experiment with Mus musculus [2] and 15.4% in the experiment on Mus musculus [3].
As for `N#Cc1ccc2nc(NC3CC3)c(N3CCN(Cc4cc(Cl)ccc4Cl)CC3)nc2c1`, the Activity in the experiment on Mus musculus [4] is on record as 18.8%; in the experiment with Mus musculus [2], 27.4%; with Mus musculus [3], 15.7%; in the experiment on Mus musculus [5], 42%.
As to `CC(C)Nc1nc2ccccc2nc1N1CCC(Oc2ccc(Cl)cc2F)CC1`, in experiment [1], the IC50 came to 51 nM.
The same measure, in the same setting: the figure for `COc1ccc(C(=O)C2CCN(c3nc4cnccc4nc3NC3CC3)CC2)c(F)c1` is 21 nM; for `Cc1cccc(CN2CCN(c3nc4ncccc4nc3NC3CC3)CC2)c1` it is 840 to 24600 nM.
For `Clc1cccc(Cl)c1CN1CCN(c2nc3ccccc3nc2NC2CC2)CC1.O=C(O)C(F)(F)F`, the Activity with Mus musculus [2] is given as 40.4%; in the experiment on Mus musculus [3], 29.6%.
In the case of `COc1ccc(C(=O)C2CCN(c3nc4c(C#N)nccc4nc3NC3CC3)CC2)c(F)c1`, the IC50 in experiment [1] turned out to be 43 nM.
Same read-out and setting: the figure for `CN1CCN(C(=O)c2cc3nc(NC4CC4)c(N4CCC(C(=O)c5cc(C#N)ccc5F)CC4)nc3cn2)CC1` is 54 nM.
For `Clc1ccc(Cl)c(CN2CCN(c3nc4ccccc4nc3NC3CC3)CC2)c1.O=C(O)C(F)(F)F`, the Activity in the experiment on Mus musculus [2] worked out at 48.1%; in the experiment with Mus musculus [3], 41.4%.
Take `N#Cc1ccc2nc(NC3CC3)c(N3CCC(Cc4ccc(F)cc4F)CC3)nc2c1.O=C(O)C(F)(F)F`: the results for the Activity in the experiment with Mus musculus [6] and in the experiment with Rattus norvegicus were 25.1% and 36.9%, respectively.
As for `COc1ccc(OC2CCN(c3nc4cnncc4nc3NC3CC3)CC2)c(F)c1`, the IC50 in experiment [1] worked out at 36 nM.
Same read-out and setting: the figure for `C[C@H](CO)Nc1nc2ccccc2nc1N1CCN(Cc2cc(Cl)ccc2Cl)CC1` is 1570 nM; for `Cc1nnc(C)c2nc(N3CCC(Oc4ccc(F)cc4F)CC3)c(NC(C)C)nc12` it is 60 nM; for `CC(C)Nc1nc2ccc(C#N)cc2nc1N1CCN(Cc2cc(Cl)ccc2Cl)CC1` it is 310 nM.
For `CC(C)Nc1nc2ccc(C#N)cc2nc1N1CCC([C@H](F)c2cc(F)ccc2F)CC1`, the IC50 in experiment [1] worked out at 82 nM.
Still for that read-out and setting: the figure for `COc1ccc(C(=O)N2CCN(c3nc4ccccc4nc3NC3CC3)CC2)cc1Cl` is 10100 to 17700 nM; for `Fc1ccc(F)c(CN2CCN(c3nc4cncc(Cl)c4nc3NC3CC3)CC2)c1` it is 62 nM; for `Fc1ccc(OC2CCN(c3nc4cnccc4nc3NC3CC3)CC2)c(F)c1` it is 1100 nM.
Same read-out and setting: the figure for `Fc1ccc(CC2CCN(c3nc4cnccc4nc3NC3CC3)CC2)c(F)c1` is 19 nM.
Still for that read-out and setting: the result for `COc1ccc(C(=O)C2CCN(c3nc4c(N5CCOCC5)nccc4nc3NC3CC3)CC2)c(F)c1` reads 717 nM.

As a reminder, the IC50 is the midpoint of a concentration-inhibition curve.
